Source: patent publication US9156840B2, “D2 antagonists, methods of synthesis and methods of use” (ALTOS THERAPEUTICS, LLC, priority 2010, dated 2015)
Where a name gives a salt, the structure may show the parent alone.

The compounds below were run against T1, human D2 receptor (Homo sapiens, UniProt P14416) (assay: D2 receptor radioligand binding assay (membranes of HEK-293 cells expressing human D2 receptor)). Settings: not given.
T1 construct: expressed in transfected cells; cDNA from Origene clones TC308892 and SC123573
T1 sequence (P14416 whole entry): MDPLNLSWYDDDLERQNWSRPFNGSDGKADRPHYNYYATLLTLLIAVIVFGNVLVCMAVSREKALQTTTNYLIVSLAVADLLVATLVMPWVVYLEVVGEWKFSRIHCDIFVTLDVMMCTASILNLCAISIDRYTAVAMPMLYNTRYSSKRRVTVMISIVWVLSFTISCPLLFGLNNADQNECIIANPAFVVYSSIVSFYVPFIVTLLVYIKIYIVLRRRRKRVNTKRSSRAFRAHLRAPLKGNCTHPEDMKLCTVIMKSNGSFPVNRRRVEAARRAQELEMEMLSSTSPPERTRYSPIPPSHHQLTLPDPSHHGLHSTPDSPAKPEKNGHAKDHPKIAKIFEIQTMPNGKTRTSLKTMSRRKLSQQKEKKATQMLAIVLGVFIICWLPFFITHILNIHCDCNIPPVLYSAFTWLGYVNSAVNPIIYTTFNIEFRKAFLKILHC
Description: Affinity for the dopamine D2 receptor was tested in vitro, and the following describes the construction of cell lines expressing human D2 receptor, as well as the binding assays themselves.
Establishment of Stable Cell Lines Expressing Either the Cloned Human D2S Receptor or the Cloned Human D2L Receptor.
The human D2 receptor exists in two isoforms: the short form (D2S) and the long form (D2L). The two isoforms are generated from the D2 gene by alternative splicing and the D2L isoform differs from the D2S isoform by the addition of 29 amino acids in the third intracellular loop of its protein structure.
To establish HEK-293 cell lines stably expressing either the human D2S or the human D2L, the human dopamine D2S receptor (Genebank Accession Number NM_016574) and human dopamine D2L receptor (Genebank Accession Number BC021195) were amplified by PCR from Origene cDNA clones TC308892 and SC123573 (respectively) using the following primers: 5-[…]-3 (SEQ ID NO: 1) sense and 5-[…]-3 (SEQ ID NO: 2) antisense. The resulting PCR products were respectively cloned into pENTR-D-TOPO (Invitrogen), sequenced and then transferred into the pCDNA3.2-DEST (Invitrogen) using the LR-clonasc gateway reaction (Invitrogen) and sequenced again to verify the genes sequence.
HEK293 cells were maintained in Eagles Minimum Essential Medium (MEM) supplemented with 0.292 g/L L-glutamine and 10% (v/v) fetal calf serum at 37° C. in a 5% CO2 humidified atmosphere. Cells were grown to 60-80% confluency in 10 cm dishes before transfection. Transfection of the D2S and D2L containing pcDNA3.2-DEST into HEK-293 cells were performed using Lipofectamine 2000 (Invitrogen). Transfected cells were seeded and diluted 2 days after transfection and maintained in culture medium supplemented with 500 μg/mL G418. The HEK-293 cell line expressing the huD2S (R2D2S) and the huD2L (R2D2L) were maintained in culture medium supplemented with 500 μg/mL G418.
D2 Receptor Binding Assays
HEK293 cells were in Eagles Minimum Essential Medium (MEM) supplemented with 10% FBS, 0.292 g/liter L-glutamine, 10^5 units/liter penicillin, 100 mg/liter streptomycin and […] Geneticin at 37° C. in a 5% CO2 humidified atmosphere. Cells were grown to 80-90% confluence and harvested with cell stripper (Cellgro #25-056-CI). Cells were then washed with PBS (2×). Cells were either pelleted and frozen at −80° C. or membranes were prepared immediately.
Cells from pellet were resuspended in homogenization buffer (15 mM Tris*HCl, 2 mM MgCl2*6H2O, 0.3 mM EDTA, 1 mM EGTA pH 7.4 @ 4° C.). Cells were then homogenized using a Polytron (PT 1200) homogenizer at setting 6 for 10 seconds. Crude membranes were pelleted at 39, 412 g for 15 min, at 4° C. (2×) in a Sorval RC6 plus centrifuge. Membranes were finally resuspended in resuspension buffer (50 mM Tris*HCl, 120 mM NaCl, 10 mM MgCl2*6H2O, 1 mM EDTA pH 7.4 @ 4° C.) and sonicated (Fisher Sonic Dismembrator) at setting 5 for 10 seconds.
The radioligand binding assays were conducted in microtiter plates (Costar #3961) with a final volume of 1.0 mL.
The membranes were thawed at room temperature, briefly homogenized using a sonicator, diluted in assay buffer and kept on wet ice until being added to the assay plate. Membranes were diluted to a final target tissue concentration of 10 μg protein per well. The specific binding should be greater than 80% with less than 10% total radioligand bound to minimize ligand depletion errors.
First compound of the invention (50 μL) or assay buffer (50 mM Tris*HCl, 120 mM NaCl, 5 mM MgCl2*6H2O, 1 mM EDTA, 5 mM KCl pH 7.4 @37° C. plus 0.025% BSA), buffer (700 μL) and then membrane (200 μL) were added to the deep well assay plate, which was then shaken for 10 minutes. Finally, radioligand (50 μL) was added.
The assay plates were incubated at 37° C. for 120 minutes.
The assay plate were filtered over 0.3% PEI pretreated glass fiber filtermats (GF/C) using a Packard Filtermate cell harvester. […]

Row | SMILES | IC50 [µM]
1 | O=C(O[C@H]1CN2CCC1CC2)c1cccc(CN2CN(c3ccccc3)C3(CCN(CCCn4c(=O)[nH]c5ccccc54)CC3)C2=O)c1 [Compound 26, (R)-Quinuclidin-3-yl 3-((4-oxo-8-(3-(2-oxo-2,3-dihydro-1H-benzo[d]imidazol-1-yl)propyl)-1-phenyl-1,3,8-triazaspiro[4.5]decan-3-yl)methyl)benzoate] | < 0.01

Same assay, conditions: radioligand displacement, HEK293 membranes, 37° C. for 120 minutes; read-out: Affinity Score (IC50 values for D2 on a scale of 1 through 5)

Row | SMILES | IC50 [µM]
2 | O=C(O)c1cccc(CN2CN(c3ccccc3)C3(CCN(CCCn4c(=O)[nH]c5ccccc54)CC3)C2=O)c1 [Compound 11, 3-((4-Oxo-8-(3-(2-oxo-2,3-dihydro-1H-benzo[d]imidazol-1-yl)propyl)-1-phenyl-1,3,8-triazaspiro[4.5]decan-3-yl)methyl)benzoic acid] | < 0.01
3 | O=C(O)c1ccc(CN2CN(c3ccccc3)C3(CCN(CCCn4c(=O)[nH]c5ccccc54)CC3)C2=O)cc1 [Compound 17, 4-((4-Oxo-8-(3-(2-oxo-2,3-dihydro-1H-benzo[d]imidazol-1-yl)propyl)-1-phenyl-1,3,8-triazaspiro[4.5]decan-3-yl)methyl)benzoic acid] | < 0.01
4 | O=C(O)c1ccccc1CN1CN(c2ccccc2)C2(CCN(CCCn3c(=O)[nH]c4ccccc43)CC2)C1=O [Compound 19, 2-((4-Oxo-8-(3-(2-oxo-2,3-dihydro-1H-benzo[d]imidazol-1-yl)propyl)-1-phenyl-1,3,8-triazaspiro[4.5]decan-3-yl)methyl)benzoic acid] | < 0.01
5 | O=C(CCCCCN1CN(c2ccccc2)C2(CCN(CCCn3c(=O)[nH]c4ccccc43)CC2)C1=O)OCc1ccccc1 [Compound 21, Benzyl 6-(4-oxo-8-(3-(2-oxo-2,3-dihydro-1H-benzo[d]imidazol-1-yl)propyl)-1-phenyl-1,3,8-triazaspiro[4.5]decan-3-yl)hexanoate] | < 0.01
6 | O=C(O)CCCCCN1CN(c2ccccc2)C2(CCN(CCCn3c(=O)[nH]c4ccccc43)CC2)C1=O [Compound 22, 6-(4-Oxo-8-(3-(2-oxo-2,3-dihydro-1H-benzo[d]imidazol-1-yl)propyl)-1-phenyl-1,3,8-triazaspiro[4.5]decan-3-yl)hexanoic acid] | < 0.01
7 | O=C(OCCN1CCOCC1)c1cccc(CN2CN(c3ccccc3)C3(CCN(CCCn4c(=O)[nH]c5ccccc54)CC3)C2=O)c1 [Compound 25, 2-Morpholinoethyl 3-((4-oxo-8-(3-(2-oxo-2,3-dihydro-1H-benzo[d]imidazol-1-yl)propyl)-1-phenyl-1,3,8-triazaspiro[4.5]decan-3-yl)methyl)benzoate] | < 0.01
8 | CCN(CC)C(=O)COC(=O)c1cccc(CN2CN(c3ccccc3)C3(CCN(CCCn4c(=O)[nH]c5ccccc54)CC3)C2=O)c1 [Compound 30, 2-(Diethylamino)-2-oxoethyl 3-((4-oxo-8-(3-(2-oxo-2,3-dihydro-1H-benzo[d]imidazol-1-yl)propyl)-1-phenyl-1,3,8-triazaspiro[4.5]decan-3-yl)methyl)benzoate] | < 0.01
9 | COC(=O)[C@@H](c1ccccc1)N1CN(c2ccccc2)C2(CCN(CCCn3c(=O)[nH]c4ccccc43)CC2)C1=O [Compound 34, (R)-methyl 2-(4-oxo-8-(3-(2-oxo-2,3-dihydro-1H-benzo[d]imidazol-1-yl)propyl)-1-phenyl-1,3,8-triazaspiro[4.5]decan-3-yl)-2-phenylacetate] | < 0.01
10 | CN1CCN(C(=O)COC(=O)c2cccc(CN3CN(c4ccccc4)C4(CCN(CCCn5c(=O)[nH]c6ccccc65)CC4)C3=O)c2)CC1 [Compound 35, 2-(4-Methylpiperazin-1-yl)-2-oxoethyl 3-((4-oxo-8-(3-(2-oxo-2,3-dihydro-1H-benzo[d]imidazol-1-yl)propyl)-1-phenyl-1,3,8-triazaspiro[4.5]decan-3-yl)methyl)benzoate] | < 0.01
11 | O=C(O)[C@@H](c1ccccc1)N1CN(c2ccccc2)C2(CCN(CCCn3c(=O)[nH]c4ccccc43)CC2)C1=O [Compound 39, (R)-2-(4-oxo-8-(3-(2-oxo-2,3-dihydro-1H-benzo[d]imidazol-1-yl)propyl)-1-phenyl-1,3,8-triazaspiro[4.5]decan-3-yl)-2-phenylacetic acid] | < 0.01
12 | O=C(O)[C@H](c1ccccc1)N1CN(c2ccccc2)C2(CCN(CCCn3c(=O)[nH]c4ccccc43)CC2)C1=O [Compound 40, (S)-2-(4-oxo-8-(3-(2-oxo-2,3-dihydro-1H-benzo[d]imidazol-1-yl)propyl)-1-phenyl-1,3,8-triazaspiro[4.5]decan-3-yl)-2-phenylacetic acid] | < 0.01
13 | O=C(O)c1cccc(CN2CN(c3ccc(F)cc3)C3(CCN(CCCn4c(=O)[nH]c5ccccc54)CC3)C2=O)c1 [Compound 43, 3-((1-(4-Fluorophenyl)-4-oxo-8-(3-(2-oxo-2,3-dihydro-1H-benzo[d]imidazol-1-yl)propyl)-1,3,8-triazaspiro[4.5]decan-3-yl)methyl)benzoic acid] | < 0.01
14 | O=C(O)c1cccc(CN2CN(c3ccccc3)C3(CCN(CCCn4c(=O)sc5ccccc54)CC3)C2=O)c1 [Compound 52, 3-((4-Oxo-8-(3-(2-oxobenzo[d]thiazol-3(2H)-yl)propyl)-1-phenyl-1,3,8-triazaspiro[4.5]decan-3-yl)methyl)benzoic acid] | < 0.01
15 | COc1ccc(N2CN(Cc3cccc(C(=O)O)c3)C(=O)C23CCN(CCCn2c(=O)[nH]c4ccccc42)CC3)cc1 [Compound 56, 3-((1-(4-Methoxyphenyl)-4-oxo-8-(3-(2-oxo-2,3-dihydro-1H-benzo[d]imidazol-1-yl)propyl)-1,3,8-triazaspiro[4.5]decan-3-yl)methyl)benzoic acid] | < 0.01
16 | COC(=O)c1cccc(CN2CN(c3ccccc3)C3(CCN(CCCc4c[nH]c5ccccc45)CC3)C2=O)c1 [Compound 57, methyl 3-((8-(3-(1H-indol-3-yl)propyl)-4-oxo-1-phenyl-1,3,8-triazaspiro[4.5]decan-3-yl)methyl)benzoate] | < 0.01
17 | O=C(O)CCCC(c1ccccc1)N1CN(c2ccccc2)C2(CCN(CCCn3c(=O)[nH]c4ccccc43)CC2)C1=O (centres unmarked) [Compound 69, 5-(4-Oxo-8-(3-(2-oxo-2,3-dihydro-1H-benzo[d]imidazol-1-yl)propyl)-1-phenyl-1,3,8-triazaspiro[4.5]decan-3-yl)-5-phenylpentanoic acid] | < 0.01
18 | O=C(O)CC(c1ccccc1)N1CN(c2ccccc2)C2(CCN(CCCn3c(=O)[nH]c4ccccc43)CC2)C1=O (centres unmarked) [Compound 70, 3-(4-Oxo-8-(3-(2-oxo-2,3-dihydro-1H-benzo[d]imidazol-1-yl)propyl)-1-phenyl-1,3,8-triazaspiro[4.5]decan-3-yl)-3-phenylpropanoic acid] | < 0.01
19 | O=C(O)c1cccc(CN2CN(c3ccccc3)C3(CCN(CCCN4C(=O)COc5ccccc54)CC3)C2=O)c1 [Compound 71, 3-((4-Oxo-8-(3-(3-oxo-2H-benzo[b][1,4]oxazin-4(3H)-yl)propyl)-1-phenyl-1,3,8-triazaspiro[4.5]decan-3-yl)methyl)benzoic acid] | < 0.01
20 | O=C(O)c1cccc(CN2CN(C3CCCCC3)C3(CCN(CCCn4c(=O)[nH]c5ccccc54)CC3)C2=O)c1 [Compound 72, 3-((1-cyclohexyl-4-oxo-8-(3-(2-oxo-2,3-dihydro-1H-benzo[d]imidazol-1-yl)propyl)-1,3,8-triazaspiro[4.5]decan-3-yl)methyl)benzoic acid, formate] | < 0.01
